Source: patent publication US12721985B2, “Microneedle patch system for transdermal drug delivery” (INDUSTRY-ACADEMIC COOPERATION FOUNDATION GYEONGSANG …, priority 2021, dated 2026)

Assay: Drug blood concentration pattern in rats after donepezil administration
Conditions: rat, in vivo
Experimental: More specifically, 3 mg/kg of donepezil was administered orally, 1 mg/kg of donepezil was administered subcutaneously, or 43 mg/kg of donepezil was administered using the microneedle patch prepared in the above example to rats, and the drug blood concentration patterns were compared.
Next, rats were administered donepezil at different concentrations of 43 mg/kg, 80 mg/kg, and 125 mg/kg using the microneedle patch prepared in the above example, respectively, and the drug blood concentration patterns were compared.
Next, after administering 80 mg/kg of donepezil to rats using the microneedle patch prepared in the above example, the drug blood concentration pattern was compared between the case where the needle was removed in 1 hour and the case where the needle was applied for 3 days.

SMILES: COc1cc2c(cc1OC)C(=O)C(CC1CCN(Cc3ccccc3)CC1)C2 (centres unmarked) [donepezil]
- time in which drug blood concentration was very low (po, 3 mg/kg): about 1 day
- time in which drug blood concentration was very low (sc, 1 mg/kg): about 1 day
